pKi: −log10 of the molar value. Where a name gives a salt, the structure may show the parent alone.
Assays:
human V1b receptor = biological target: T1, human V1b receptor (Homo sapiens, UniProt P47901); test: Effect on vasopressin-induced calcium increase in cells having a cloned human vasopressin receptor; assay type: cell-based; settings: CHO-K1 cells stably transfected with human V1b receptor, Arg-vasopressin 10^-8 M, FLIPR calcium
T1 construct: expressed in transfected cells; host or cells: CHO-K1
T1 sequence (P47901 1-424): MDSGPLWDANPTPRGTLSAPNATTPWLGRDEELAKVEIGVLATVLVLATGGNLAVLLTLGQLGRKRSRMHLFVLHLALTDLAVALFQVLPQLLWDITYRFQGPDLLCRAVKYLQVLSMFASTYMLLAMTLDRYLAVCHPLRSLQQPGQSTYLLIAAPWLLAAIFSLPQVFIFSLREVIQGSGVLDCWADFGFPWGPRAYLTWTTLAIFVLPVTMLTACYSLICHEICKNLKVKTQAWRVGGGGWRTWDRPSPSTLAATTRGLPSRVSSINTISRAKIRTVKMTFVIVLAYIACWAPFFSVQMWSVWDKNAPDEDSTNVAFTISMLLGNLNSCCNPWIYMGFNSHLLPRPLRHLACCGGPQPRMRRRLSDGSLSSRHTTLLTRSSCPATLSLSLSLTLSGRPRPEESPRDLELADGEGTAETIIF
Description: Effect on Vasopressin-induced Calcium Increase in Cells Having a Cloned Human Vasopressin Receptor The functional activity of the test substances was investigated on CHO-K1 cells which were stably transfected with the human V1b receptor. 50 000 cells were seeded in each well of a microtiter plate with 96 wells and incubated in culture medium in a saturated water vapor atmosphere with 5% CO2 at 37° C. overnight. The culture medium consisted of DMEM/Nut Mix F12 with Glutamax I (from Invitrogen), 10% fetal calf serum, 100 units/ml penicillin, 100 μg/ml streptomycin and 800 μg/ml Geneticin. The following day, the cells were washed with culture medium and loaded with a fluorescent dye for calcium in accordance with the manufacturer's statements (Ca^++-Plus-Assay Kit, Molecular Devices). The cells were loaded in the presence of probenzide (1 vol %). The test substances were diluted with culture medium (final concentration 10^−10 to 10^−5M) and incubated with the dye-loaded cells at room temperature for 15 minutes. The Arg-vasopressin (10^−8M) was then added and the maximum fluorescence signal was determined using a FLIPR-96 measuring instrument (Molecular Devices). Concentration-effect plots were constructed using nonlinear regression algorithms (GraphPad Prism 3.0). Kb values were calculated from IC50 values by the method of Cheng and Prusoff (Kb=IC50/1+L/EC50).

[1] = biological target: T2, human vasopressin V1b receptor (Homo sapiens, UniProt P47901); test: Vasopressin V1b receptor binding assay; settings: membranes from CHO-K1 cells with stably expressed human V1b receptors, displacement of 1.5 nM 3H-AVP
T2 construct: expressed in transfected cells; host or cells: CHO-K1 (cell line hV1b-3H2_CHO), membrane preparation
T2 sequence (P47901 1-424): T1 sequence (P47901 1-424)
Method in brief: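 Membranes were incubated with radioligand for 60 min at room temperature in 50 mM Tris, 10 mM MgCl2, 0.1% BSA, pH 7.4, with 2% DMSO final. Nonspecific binding was defined with 1 uM AVP. Bound ligand was collected by GF/B filtration and counted by scintillation, and binding parameters were derived by nonlinear regression.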

| functional antagonist of the human vasopressin V1b receptor (human V1b receptor) | SMILES | pKi [1] |
| --- | --- | --- |
| functional antagonist | COc1ccc(S(=O)(=O)N2C(=O)C(c3ccc(CN4CCCC4)cc3OC)(N3CCC[C@H]3C(=O)N(C)C)c3cc(Cl)ccc32)cc1 (single isomer, unassigned) [Example 2] | > 9.00 |
|  | COCCN(C)Cc1ccc(C2(N3CCC[C@H]3C(=O)N(C)C)C(=O)N(S(=O)(=O)c3ccc(OC)cc3OC)c3ccc(Cl)cc32)c(OC)c1 (stereo partly drawn) [Example 31, (S)-1-[5-Chloro-1-(2,4-dimethoxybenzenesulfonyl)-3-(2-methoxy-4-{[(2-methoxy-ethyl)methylamino]methyl}phenyl)-2-oxo-2,3-dihydro-1H-indol-3-yl]pyrrolidine-2-dimethylcarboxamide] | 8.00 to 9.00 |
|  | COc1ccc(S(=O)(=O)N2C(=O)C(c3ccc(CN(C)C)cc3OC)(N3CCC[C@H]3C(=O)N(C)C)c3cc(Cl)ccc32)cc1 (stereo partly drawn) [Example 70, (S)-1-[5-Chloro-3-(4-dimethylaminomethyl-2-methoxyphenyl)-1-(4-methoxy-benzenesulfonyl)-2-oxo-2,3-dihydro-1H-indol-3-yl]pyrrolidine-2-dimethylcarboxamide, trifluoroacetic acid salt] | > 9.00 |
|  | COc1ccc(S(=O)(=O)N2C(=O)C(c3ccc(CN4CCN(C)CC4)cc3OC)(N3CCC[C@H]3C(=O)N(C)C)c3ccccc32)cc1 (stereo partly drawn) [Example 92, (S)-1-{1-(4-Methoxybenzenesulfonyl)-3-[2-methoxy-4-(4-methylpiperazin-1-yl-methyl)phenyl]-2-oxo-2,3-dihydro-1H-indol-3-yl}-pyrrolidine-2-carboxylic acid dimethylamide, trifluoroacetic acid salt] | 8.00 to 9.00 |
|  | COc1ccc(S(=O)(=O)N2C(=O)C(c3cc(CN(C)CCCN(C)C)ccc3OC)(N3CCC[C@H]3C(=O)N(C)C)c3cc(Cl)ccc32)c(OC)c1 (stereo partly drawn) [Example 30, (S)-1-[5-Chloro-1-(2,4-dimethoxybenzenesulfonyl)-3-(5-{[(3-dimethylaminopropyl)-methylamino]methyl}-2-methoxyphenyl)-2-oxo-2,3-dihydro-1H-indol-3-yl]pyrrolidine-2-dimethylcarboxamide, trifluoroacetic acid salt] | > 9.00 |
|  | COc1ccc(S(=O)(=O)N2C(=O)C(c3ccc(CNC(C)C)cc3OC)(N3CCC[C@H]3C(=O)N(C)C)c3cc(Cl)ccc32)cc1 (stereo partly drawn) [Example 94, (S)-1-[5-Chloro-3-[4-(isopropylaminomethyl)-2-methoxyphenyl]-1-(4-methoxybenzene-sulfonyl)-2-oxo-2,3-dihydro-1H-indol-3-yl]pyrrolidine-2-dimethylcarboxamide, trifluoroacetic acid salt] | > 9.00 |
|  | COc1ccc(S(=O)(=O)N2C(=O)C(c3ccc(CN4CCC4)cc3OC)(N3CCC[C@H]3C(=O)N(C)C)c3cc(Cl)ccc32)cc1 (stereo partly drawn) [Example 87, (S)-1-[3-(4-Azetidin-1-ylmethyl-2-methoxyphenyl)-5-chloro-1-(4-methoxybenzene-sulfonyl)-2-oxo-2,3-dihydro-1H-indol-3-yl]pyrrolidine-2-dimethylcarboxamide, trifluoroacetic acid salt] | > 9.00 |
|  | COc1ccc(S(=O)(=O)N2C(=O)C(c3cc(CN4CCCC4)ccc3OC)(N3CCC[C@H]3C(=O)N(C)C)c3cc(Cl)ccc32)cc1 (stereo partly drawn) [Example 18, (S)-1-[5-Chloro-1-(4-methoxybenzenesulfonyl)-3-(2-methoxy-5-pyrrolidin-1-yl-methylphenyl)-2-oxo-2,3-dihydro-1H-indol-3-yl]pyrrolidine-2-dimethylcarboxamide, trifluoroacetic acid salt] | > 9.00 |
|  | COc1ccc(S(=O)(=O)N2C(=O)C(c3ccc(CN4CCCC4)cc3OC)(N(C)[C@@H](C)C(=O)N(C)C)c3cc(Cl)ccc32)c(OC)c1 (stereo partly drawn) [Example 14, (S)-2-{[5-Chloro-1-(2,4-dimethoxybenzenesulfonyl)-3-(2-methoxy-4-pyrrolidin-1-yl-methylphenyl)-2-oxo-2,3-dihydro-1H-indol-3-yl]methylamino}-N,N-dimethyl-propionamide] | 8.00 to 9.00 |
|  | COc1ccc(S(=O)(=O)N2C(=O)C(c3cc(CN4CCN(C)CC4)ccc3OC)(N3CCC[C@H]3C(=O)N(C)C)c3cc(Cl)ccc32)cc1 (stereo partly drawn) [Example 20, (S)-1-{5-Chloro-1-(4-methoxybenzenesulfonyl)-3-[2-methoxy-5-(4-methylpiperazin-1-yl-methyl)phenyl]-2-oxo-2,3-dihydro-1H-indol-3-yl}pyrrolidine-2-dimethylcarboxamide, trifluoroacetic acid salt] | > 9.00 |
|  | COc1ccc(S(=O)(=O)N2C(=O)C(c3cc(CN(C)C)ccc3OC)(N3CCC[C@H]3C(=O)N(C)C)c3cc(Cl)ccc32)cc1 (stereo partly drawn) [Example 17, (S)-1-[5-Chloro-3-(5-dimethylaminomethyl-2-methoxyphenyl)-1-(4-methoxy-benzene-sulfonyl)-2-oxo-2,3-dihydro-1H-indol-3-yl]pyrrolidine-2-dimethylcarboxamide, trifluoroacetic acid salt] | > 9.00 |
